Data taken from US20210261621A1, “Preparation of Dilipid Polymixins and Use Thereof as Antimicrobial Adjuvants” (priority 2018, published 2021).
Read-outs that look alike come from different tables or passages of the source.

Test system: P. aeruginosa PAO1
Parameters: MICDrug / MICDrug in combo / MIC of adjuvant in combo: unit not given beside the values
Conditions: for MICDrug: antibiotic alone
Description: The potential of the dilipid polymyxins to serve as an adjuvant in combination with other antibiotics was evaluated against P. aeruginosa PAO1 strain (Tables 4 and 7-12). […] Checkerboard assays were performed with the dilipid polymyxins in combination with twenty-one clinically-used antibiotics. The panel included representatives from the β-lactam, carbapenem, tetracycline, aminoglycoside and fluoroquinolone antibiotic families. Other agents that are used to treat Gram-negative bacterial infection such as fosfomycin, trimethoprim and chloramphenicol were also included. […] Fractional inhibitory concentration (FIC) index was calculated for each combination to measure potential synergism between the two agents. FIC was obtained by dividing the MIC of antibiotic/adjuvant in combination by the MIC of antibiotic/adjuvant alone, while FIC index was calculated by the summation of FIC indices for the antibiotic and adjuvant. An FIC index of ≤0.5, 0.5<x≤4, or >4 denotes for synergistic, additive or antagonistic interaction, respectively. Initially, we assessed the adjuvant properties of PMBN against the panel of 21 antibiotics.
The assay was performed on 96-well plates as previously described. Briefly, the antibiotic at study was 2-fold serially diluted along the x-axis, while the adjuvant was 2-fold serially diluted along the y-axis to create a matrix in which each well consists of a combination of both at different concentrations. Overnight grown bacterial cultures were diluted in saline to 0.5 McFarland turbidity, followed by 1:50 dilution in MHB and inoculation on each well to a final concentration of approximately 5×10^5 colony forming units/mL. Wells containing only MHB with or without bacterial cells were used as positive or negative control, respectively. […] The fractional inhibitory concentration (FIC) of the antibiotic was calculated via dividing the MIC of antibiotic in the presence of adjuvant by the MIC of antibiotic alone. Similarly, the FIC of adjuvant was calculated via dividing the MIC of adjuvant in the presence of antibiotic by the MIC of adjuvant alone. The FIC index was obtained by the summation of both FIC values. The FIC index was then interpreted as synergistic, additive, or antagonistic for values of ≤0.5, 0.5<x<4, or ≥4, respectively.

[1] = antibiotic in combination with 1
[2] = antibiotic in combination with 3
[3] = antibiotic in combination with 4
[4] = antibiotic in combination with 5
[5] = antibiotic in combination with PMBN
[6] = antibiotic in combination with 2

Compound	MICDrug	MICDrug in combo [1]	MICDrug in combo [2]	MICDrug in combo [3]	MICDrug in combo [4]	MICDrug in combo [5]	MICDrug in combo [6]
C[C@H]1[C@H](NC(=O)/C(=N\OC(C)(C)C(=O)O)c2csc(N)n2)C(=O)N1S(=O)(=O)O [Aztreonam, reference compound]	4	(0.5)	(1)	(0.0625)	(0.5)	(0.5)	
CC(C)(O/N=C(\C(=O)N[C@@H]1C(=O)N2C(C(=O)[O-])=C(C[n+]3ccccc3)CS[C@H]12)c1csc(N)n1)C(=O)O [Ceftazidime, reference compound]	2	(0.25)	(1)	(0.0625)	(0.25)	(0.25)	(1)
O=C(N[C@H](CO)[C@H](O)c1ccc([N+](=O)[O-])cc1)C(Cl)Cl [Chloramphenicol, reference compound]	32	(2)	(4)	(4)	(8)	(2)	(4)
C[C@@H](O)[C@H]1C(=O)N2C(C(=O)O)=C(S[C@@H]3CN[C@H](CNS(N)(=O)=O)C3)[C@H](C)[C@H]12 [Doripenem, reference compound]	1	(0.5)	(0.5)	(0.0625)	(0.5)	(0.25)	(0.125)
C[C@H]1c2cccc(O)c2C(=O)C2=C(O)[C@]3(O)C(=O)C(C(N)=O)=C(O)[C@@H](N(C)C)[C@@H]3[C@@H](O)[C@@H]21 [Doxycycline, reference compound]		(0.5)	(1)	(4)	(0.25)	(0.25)	(0.125)
C[C@@H]1O[C@@H]1P(=O)(O)O [Fosfomycin, reference compound]		(2)	(8)	(8)	(1)	(2)	(0.125)
CC(=O)NC[C@H]1CN(c2ccc(N3CCOCC3)c(F)c2)C(=O)O1 [Linezolid, reference compound]	1024	(64)	(0.25)	(0.25)	(32)	(32)	(1)
C[C@@H](O)[C@H]1C(=O)N2C(C(=O)O)=C(S[C@@H]3CN[C@H](C(=O)N(C)C)C3)[C@H](C)[C@H]12 [Meropenem, reference compound]		(0.25)	(0.5)	(0.5)	(0.5)	(0.125)	(0.0625)
CN(C)c1ccc(O)c2c1C[C@H]1C[C@H]3[C@H](N(C)C)C(O)=C(C(N)=O)C(=O)[C@@]3(O)C(O)=C1C2=O [Minocycline, reference compound]	16	(1)	(2)	(4)	(2)	(0.5)	(4)
COc1c(N2C[C@@H]3CCCN[C@@H]3C2)c(F)cc2c(=O)c(C(=O)O)cn(C3CC3)c12 [Moxifloxacin, reference compound]	1	(0.125)	(0.5)	(1)	(0.25)	(0.125)	(1)
CO[C@@H]1[C@@H](OC(N)=O)[C@@H](O)[C@H](Oc2ccc3c(O)c(NC(=O)c4ccc(O)c(CC=C(C)C)c4)c(=O)oc3c2C)OC1(C)C [Novobiocin, reference compound]	512	(16)	(0.5)	(2)	(128)	(4)	(8)
CCN1CCN(C(=O)N[C@@H](C(=O)N[C@@H]2C(=O)N3[C@@H]2SC(C)(C)[C@@H]3C(=O)O)c2ccccc2)C(=O)C1=O [Piperacillin, reference compound]	4	(2)	(2)	(4)	(2)	(1)	(0.0625)
C=C[C@]1(C)C[C@@H](OC(=O)CO)[C@]2(C)[C@H](C)CC[C@]3(CCC(=O)[C@H]32)[C@@H](C)[C@@H]1O [Pleuromutilin, reference compound]	512	(4)	(8)	(4)	(2)	(16)	(4)
CO[C@H]1/C=C/O[C@@]2(C)Oc3c(C)c(O)c4c(O)c(c(/C=N/N5CCN(C)CC5)c(O)c4c3C2=O)NC(=O)/C(C)=C\C=C\[C@H](C)[C@H](O)[C@@H](C)[C@@H](O)[C@@H](C)[C@H](OC(C)=O)[C@@H]1C [Rifampicin, reference compound]	16		(8)	(0.25)	(1)	(0.0625)	(8)
[H]/N=C(/N)N[C@H]1[C@H](O)[C@@H](O)[C@H](O[C@@H]2O[C@@H](C)[C@](O)(C=O)[C@H]2O[C@@H]2O[C@@H](CO)[C@H](O)[C@@H](O)[C@@H]2NC)[C@@H](N/C(N)=N\[H])[C@@H]1O [Streptomycin, reference compound]	16	(8)	(16)	(16)	(8)	(8)	(4)
NC[C@H]1O[C@H](O[C@H]2[C@H](O)[C@@H](O[C@H]3O[C@H](CO)[C@@H](O)[C@H](N)[C@H]3O)[C@H](N)C[C@@H]2N)[C@H](N)C[C@@H]1O [Tobramycin, reference compound]	1	(1)	(1)	(1)	(1)	(1)	(1)
COc1cc(Cc2cnc(N)nc2N)cc(OC)c1OC [Trimethoprim, reference compound]	128	(16)	(16)	(0.25)	(16)	(8)	(8)
CN[C@H](CC(C)C)C(=O)N[C@H]1C(=O)N[C@@H](CC(N)=O)C(=O)N[C@H]2C(=O)N[C@H]3C(=O)N[C@H](C(=O)N[C@H](C(=O)O)c4cc(O)cc(O)c4-c4cc3ccc4O)[C@H](O)c3ccc(c(Cl)c3)Oc3cc2cc(c3O[C@@H]2O[C@H](CO)[C@@H](O)[C@H](O)[C@H]2O[C@H]2C[C@](C)(N)[C@H](O)[C@H](C)O2)Oc2ccc(cc2Cl)[C@H]1O [Vancomycin, reference compound]	256	(8)	(128)	(64)	(2)	(4)	(2)
Gentamicin [reference compound]	2	(2)	(2)	(2)	(4)	(2)	(4)
